Article PMC5844530, “Fosmetpantotenate (RE-024), a phosphopantothenate replacement therapy for pantothenate kinase-associated neurodegeneration: Mechanism of action and efficacy in nonclinical models” (PLoS ONE, 2018)
Several values for one entry are separate records, joined by “and”; a condition that tells them apart may be missing. Equal entries are not always repeated. Where two headings read alike, the source gives them in different places.

Columns and labels:
[1] = Microdialysis (striatal dialysate and blood) in cynomolgus monkeys; type: in vivo, cynomolgus monkey; details: for Cmax: po, read-out: Cmax; for AUC: read-out: AUC
Experimental: Monkeys were sedated by intramuscular (i.m.) ketamine administration and cannulated for intravenous (i.v.) administration of propofol infusion (initiated 15–30 min after ketamine administration). Subsequently, the animals were placed in an magnetic resonance imaging (MRI)-compatible stereotaxic frame (Kopf Model 1430), and T1 and T2 weighted scans (for up to 1 h) were carried out with a 7 cm loop-coil in a 3 Tesla Siemens Magnetom TIM Trio (Germany). To derive the coordinates, Digital Imaging and Communications in Medicine (DICOM) files were transformed into Neuroimaging Informatics Technology Initiative (NIFTI) format. NIFTI-compatible images were loaded into 3D viewer software (MRIcro version 1.40 build 1), and the stereotaxic zero in the MRI image was determined using the coordinates of the earbar-tips. Coordinates for placement of the guide cannulas were calculated for every individual animal by use of MRI images and a primate brain map.
On a separate day, microdialysis guide cannulas were placed bilaterally in the head of the caudate nucleus using the same MRI compatible stereotaxic frame (Kopf Model 1430), under isoflurane anesthesia. Prior to surgery, animals were administered ketamine (i.m.), and subsequently anesthetized with isoflurane (0.8%-2% inhalation) while artificially ventilated with O2/N2O (40/60) at 60 to 80 mL tidal volume via an intratracheal tube. During surgery, subcutaneous or i.v. fluids were provided. Animals were allowed to recover from the anesthesia in a warmed environment, single housed, and given at a minimum a 14-day post-surgery recovery time. The following medications were administered to reduce pain and inflammation, as well as reduce the chance of post-operative infection: meloxicam (Metacam 5 mg/mL, 0.2 mg/kg, buprenorphine (Temgesic, 0.3 mg/mL, 0.0038 mg/kg), enrofloxacine (25 mg/mL, 5 mg/kg), and amoxicillin (150 mg/mL, 15 mg/kg).
Samples were stored in -80°C.
From monkeys only, whole blood samples (0.5 mL) were collected from the femoral vein at -1, 0, 1, 2, and 3 h relative to dosing and transferred immediately to chilled polypropylene 15 mL vials containing 2500 μL of 0.15% formic acid in acetonitrile, mixed, and placed on dry ice. After the collections samples were stored at -80°C.
Sample preparation for monkey dialysate and blood samples: Concentrations of fosmetpantotenate (D1 and D2), PA, and PPA in monkey dialysate and blood samples were determined by Brains On-Line LLC. […] For dialysate quantitation, standards and QC samples were prepared in control dialysate (0.2% BSA in aCSF: water: 0.04% ascorbic acid in aqueous 0.02 M formic acid [4.5:24:6 v/v/v]). Standards, QC samples, and dialysate (10 μL) were mixed with 6 μL 20 mM formic acid and 0.01% ascorbic acid in water containing internal standard (10 ng/mL of ^15N/^13C3-PA) and analyzed by LC-MS/MS. Blood standards and QC samples were prepared in supernatant from control monkey blood which had been treated with 5 volumes of 0.15% formic acid in acetonitrile. Endogenous levels >LLOQ were detected for PA in control quenched blood only and quantitated at 56.56 nM based on calibration standard prepared in solvent. To compensate for endogenous PA in the calibration curve control blood, PA standard curve concentrations were spiked plus endogenous levels. Sample work-up of blood involved diluting 10 μL supernatant from study blood samples, standards, and QC samples with 90 μL of 20 mM formic acid and 0.01% ascorbic acid in water, then treating with 4 μL 20 mM formic acid and 0.01% ascorbic acid in water containing internal standard (10 ng/mL of ^15N/^13C3-PA) and analyzing by LC-MS/MS.

[2] = tested on: PanK2 knockdown cells (acetylated tubulin); test: Western blot analysis of acetylated tubulin; type: cell-based, human; details: for Tubulin Acetylation (fold of control): mean ± SD of 3 independent experiments, β-actin normalization; for Acetyl tubulin level (fold over vehicle): single experiments Exp1 (n=1), Exp2 (n=3), Exp3 (n=3), listed as RE-024; for Acetyl tubulin (quantification) / Acetyl tubulin Normalized (to actin): 1 µM fosmetpantotenate, replicates 1-2
Experimental: After incubation, the cells were lysed in RIPA buffer containing 300 mM NaCl, 10 mM Tris HCl pH 8.0, 10 mM KCl, 1 mM ethylenediaminetetraacetic acid (EDTA), 1% Nonidet-P40, 1% sodium deoxycholate, 0.1% SDS, 1 mM phenylmethanesulfonyl fluoride, and protease inhibitor cocktail (11697498001, Roche, Indianapolis, IN), and sonicated on ice with a Branson 450 sonicator through 2 cycles of ten 2s pulses (1 min pause between cycles). Total protein concentration was determined using a Bio-Rad Protein Assay (500–0006, Biorad, Hercules, CA). Cell extracts were subjected to sodium dodecyl sulfate polyacrylamide gel electrophoresis (SDS-PAGE) analysis (4–12%, NP0335BOX, Life Technologies, Great Island, NY) and transferred to a nitrocellulose membrane (10401396, Whatman, Maidstone, UK). Immunostaining was accomplished by overnight incubation with primary antibodies followed by 1 h of incubation with dye-conjugated secondary antibodies according to the manufacturer’s instructions. Protein detection was achieved using an Infrared Odyssey system (LiCor, Lincoln, NE). Densitometric analysis of western blots was performed using ImageJ software; the statistical significance was determined using a t-test. Actin was used as a normalization probe.

With `COC(=O)CCNC(=O)[C@H](O)C(C)(C)COP(=O)(N[C@@H](C)C(=O)OC)Oc1ccccc1` (mixture of isomers) [Fosmetpantotenate] the “fold increase in dialysate AUC from 100 to 300 mg/kg” value ([1]; PA basal adjusted, analyte = label) was 5.0 fold, the “fold increase in blood estimated exposure from 100 to 300 mg/kg” value ([1]; blood) was ~ 3.6 fold and the concentration at 0.5 h ([1]; cynomolgus monkey, in vivo, 300 mg/kg, individual Cyno, Fosmetpantotentate 300 mg/kg PO, corrected for dilution, post-dose, time 0.5 hr, read-out: Fosmetpantotenate Dialysate Concentration) was 2060 nM. It also gave a concentration at 1 h ([1]; cynomolgus monkey, in vivo, 300 mg/kg, individual Cyno, Fosmetpantotentate 300 mg/kg PO, corrected for dilution, post-dose, time 1 hr, read-out: Fosmetpantotenate Dialysate Concentration) of 393 nM, a concentration at 1.5 h ([1]; cynomolgus monkey, in vivo, 300 mg/kg, individual Cyno, Fosmetpantotentate 300 mg/kg PO, corrected for dilution, post-dose, time 1.5 hr, read-out: Fosmetpantotenate Dialysate Concentration) of 76 nM and a concentration at 2 h ([1]; cynomolgus monkey, in vivo, 300 mg/kg, individual Cyno, Fosmetpantotentate 300 mg/kg PO, corrected for dilution, post-dose, time 2 hr, read-out: Fosmetpantotenate Dialysate Concentration) of 20 nM. It also gave a concentration at 2.5 h ([1]; cynomolgus monkey, in vivo, 300 mg/kg, individual Cyno, Fosmetpantotentate 300 mg/kg PO, corrected for dilution, post-dose, time 2.5 hr, read-out: Fosmetpantotenate Dialysate Concentration) of 7.12 nM, a concentration at 1 h ([1]; cynomolgus monkey, in vivo, 300 mg/kg, individual Cyno, Fosmetpantotentate 300 mg/kg PO, post-dose, time 1 hr, read-out: Fosmetpantotenate Blood Concentration) of 7390 nM and a concentration at 3 h ([1]; cynomolgus monkey, in vivo, 300 mg/kg, individual Cyno, Fosmetpantotentate 300 mg/kg PO, post-dose, time 3 hr, read-out: Fosmetpantotenate Blood Concentration) of 227 nM. It also gave a Cmax ([1]; cynomolgus monkey, in vivo, 100 mg/kg, blood, fosmetpantotenate 100 mg/kg PO, analyte = label) of 1650 ± 1930 nM, a Cmax ([1]; cynomolgus monkey, in vivo, 100 mg/kg, dialysate, fosmetpantotenate 100 mg/kg PO) of 221 ± 253 nM and a Cmax ([1]; cynomolgus monkey, in vivo, 300 mg/kg, dialysate, fosmetpantotenate 300 mg/kg PO, mean (individual values)) of 1560 nM. For the same compound, the AUC ([1]; cynomolgus monkey, in vivo, dialysate, fosmetpantotenate 100 mg/kg PO) was 0.209 ± 0.234 µM·h, the AUC ([1]; cynomolgus monkey, in vivo, dialysate, fosmetpantotenate 300 mg/kg PO, mean (individual values)) was 1.03 µM·h and the concentration at 3 h ([1]; cynomolgus monkey, in vivo, individual Cyno, Fosmetpantotentate 300 mg/kg PO, corrected for dilution, post-dose, time 3 hr, LLOQ D1=0.2 nM, D2=0.3 nM, read-out: Fosmetpantotenate Dialysate Concentration) was 23.7 nM. For the same compound, the Cmax ([1]; cynomolgus, cynomolgus monkey, in vivo, 300 mg/kg, blood, fosmetpantotenate 300 mg/kg PO, mean (individual values), analyte = label) was 6040 nM, the AUC ([1]; cynomolgus, cynomolgus monkey, in vivo, blood, fosmetpantotenate 100 mg/kg PO, analyte = label) was 1.87 ± 1.96 µM·h and the AUC ([1]; cynomolgus, cynomolgus monkey, in vivo, blood, fosmetpantotenate 300 mg/kg PO, mean (individual values), analyte = label) was 6.81 µM·h. The concentration at 3 h ([1]; individual Cyno, Fosmetpantotentate 300 mg/kg PO, corrected for dilution, post-dose, time 0.5 hr, read-out: Fosmetpantotenate Dialysate Concentration) was 1059.88 nM, the concentration at 3 h ([1]; individual Cyno, Fosmetpantotentate 300 mg/kg PO, corrected for dilution, post-dose, time 1 hr, read-out: Fosmetpantotenate Dialysate Concentration) was 429.27 nM and the concentration at 3 h ([1]; individual Cyno, Fosmetpantotentate 300 mg/kg PO, corrected for dilution, post-dose, time 1.5 hr, read-out: Fosmetpantotenate Dialysate Concentration) was 72.40 nM. The concentration at 3 h ([1]; individual Cyno, Fosmetpantotentate 300 mg/kg PO, corrected for dilution, post-dose, time 2 hr, read-out: Fosmetpantotenate Dialysate Concentration) was 19.06 nM, the concentration at 3 h ([1]; individual Cyno, Fosmetpantotentate 300 mg/kg PO, corrected for dilution, post-dose, time 2.5 hr, read-out: Fosmetpantotenate Dialysate Concentration) was 4.54 nM and the “Fosmetpantotenate Dialysate Concentration” value ([1]; individual Cyno, Fosmetpantotentate 300 mg/kg PO, corrected for dilution, post-dose, time 3 hr, LLOQ D1=0.2 nM, D2=0.3 nM) was “BLQ”. For the same compound, the “Fosmetpantotenate Dialysate Concentration” value ([1]; individual Cyno, Fosmetpantotentate 300 mg/kg PO, corrected for dilution, pre-dose, time 0 hr, LLOQ D1=0.2 nM, D2=0.3 nM) was “<LLOQ”, the “Fosmetpantotenate Dialysate Concentration” value ([1]; individual Cyno, Fosmetpantotentate 300 mg/kg PO, corrected for dilution, pre-dose, time -0.5 hr, LLOQ D1=0.2 nM, D2=0.3 nM) was “<LLOQ” and the “Fosmetpantotenate Dialysate Concentration” value ([1]; individual Cyno, Fosmetpantotentate 300 mg/kg PO, corrected for dilution, pre-dose, time -1 hr, LLOQ D1=0.2 nM, D2=0.3 nM) was “<LLOQ”. The concentration at 1 h ([1]; individual Cyno, Fosmetpantotentate 300 mg/kg PO, post-dose, time 1 hr, read-out: Fosmetpantotenate Blood Concentration) was 4687.62 nM, the concentration at 1 h ([1]; individual Cyno, Fosmetpantotentate 300 mg/kg PO, post-dose, time 2 hr, read-out: Fosmetpantotenate Blood Concentration) was 1026.66 nM and 312.23 nM and the concentration at 1 h ([1]; individual Cyno, Fosmetpantotentate 300 mg/kg PO, post-dose, time 3 hr, read-out: Fosmetpantotenate Blood Concentration) was 183.68 nM. The “Fosmetpantotenate Blood Concentration” value ([1]; individual Cyno, Fosmetpantotentate 300 mg/kg PO, pre-dose, time 0 hr relative to dose) was “<LLOQ”, the “Fosmetpantotenate Blood Concentration” value ([1]; individual Cyno, Fosmetpantotentate 300 mg/kg PO, pre-dose, time -1 hr relative to dose) was “<LLOQ” and the “change in acetyl tubulin” value ([2]; 1 μM TID, day 1) was “statistically significant decrease”. The “increase in acetyl tubulin” value ([2]; 1 μM TID, day 5) was ~ 1.6 fold, the “Tubulin Acetylation (fold of control)” value ([2]; 25 μM) was 2.32 ± 0.64 fold of control and the “Acetyl tubulin level (fold over vehicle)” value ([2]; 25 µM) was 1.86 fold over vehicle and 2.77 ± 0.13 fold over vehicle. The “Tubulin Acetylation (fold of control)” value ([2]; 50 μM) was 3.68 ± 1.13 fold of control, the “Acetyl tubulin level (fold over vehicle)” value ([2]; 50 µM) was 3.02 fold over vehicle and 3.03 ± 0.05 fold over vehicle and 4.99 ± 0.03 fold over vehicle and the “Tubulin Acetylation (fold of control)” value ([2]; 200 μM) was 5.12 ± 2.57 fold of control. The “Acetyl tubulin (quantification)” value ([2]; Experiment 1, DAY 1) was 5352.933 and 4967.69, the “Acetyl tubulin Normalized (to actin)” value ([2]; Experiment 1, DAY 1) was 1.0 and the “Acetyl tubulin (quantification)” value ([2]; Experiment 1, DAY 3) was 5869.761 and 6720.347. For the same compound, the “Acetyl tubulin Normalized (to actin)” value ([2]; Experiment 1, DAY 3) was 1.2 and 1.5, the “Acetyl tubulin (quantification)” value ([2]; Experiment 1, DAY 5) was 9323.933 and 10851.882 and the “Acetyl tubulin Normalized (to actin)” value ([2]; Experiment 1, DAY 5) was 2.0 and 2.1. For the same compound, the “Acetyl tubulin (quantification)” value ([2]; Experiment 2, DAY 1) was 2820.548 and 2422.355, the “Acetyl tubulin Normalized (to actin)” value ([2]; Experiment 2, DAY 1) was 1.1 and 1.0 and the “Acetyl tubulin (quantification)” value ([2]; Experiment 2, DAY 3) was 5646.447 and 4155.426. The “Acetyl tubulin Normalized (to actin)” value ([2]; Experiment 2, DAY 3) was 2.6, the “Acetyl tubulin (quantification)” value ([2]; Experiment 2, DAY 5) was 4976.426 and 5163.962 and the “Acetyl tubulin Normalized (to actin)” value ([2]; Experiment 2, DAY 5) was 2.2 and 1.9.
